The conditions of data set [1]: Crystal; visual observation.
Data set [2] in a line: molar enthalpy of vaporization or sublimation. The conditions noted are these: 298.15 K; Crystal; drop calorimetry.

Structures are written as SMILES. ± gives the expanded uncertainty stated by the source.

`O=[N+]([O-])c1cccc2nsnc12` [4-nitro-2,1,3-benzothiadiazole]: the Normal melting temperature in data set [1] stood at 110 ± 1 °C. The molar enthalpy in data set [2] was 24.3 ± 2.06 kcal/mol.
